Values belong to the molecule of their own block, whether it stands above or below them.
Tests used:
Type in all cases: biochemical
PI3kδ = PI3kδ (Homo sapiens, UniProt O00329); assay: Fluorescent (HTRF) determination of PI3 kinase enzyme activity, PI3Kδ; settings: for inhibition at 0.1 µM / % inhibition (PI3kδ) 100 nM: 100 nM (Examples 60-137); for % inhibition (PI3kδ) 100 nM: 0.1 µM; for inhibition at 0.3 µM: 300 nM (Examples 1-59)
From the text: (§1) Assay 1: Fluorescent Determination of PI3Kinase Kinase Enzyme Activity
(§2) Phosphoinositide 3 kinases (PI3K) belong to a class of lipid kinases that play a critical role in the regulation of several key cellular processes. The PI3K are capable of phosphorylating the 3-hydroxy position of phosphoinositols thereby generating second messengers involved in downstream signalling events. The homogenous time resolved fluorescence (HTRF) assay allows detection of 3,4,5-triphosphate (PIP3) formed as a result of phosphorylation of phosphotidylinositol 4,5-biphosphate (PIP2) by PI3K isoforms such as α, β, γ or δ. PI3K isoform activity for a, p, y or 8 was determined using a PI3K human HTRF™ Assay Kit (Millipore, Billerica, Mass.) with modifications. All incubations were carried out at room temperature. Briefly, 0.5 μl of 40× inhibitor (in 100% DMSO) or 100% DMSO were added to each well of a 384-well black plate (Greiner Bio-One, Monroe, N.C.) containing 14.5 μl IX reaction buffer /PIP2 (10 mM MgCl2, 5 mM DTT, 1.38 μM PIP2) mix with or without enzyme and incubated for 10 min. After the initial incubation, 5 μl/well of 400 μM ATP was added and incubated for an additional 30 minutes. Reaction was terminated by adding 5 μl/well stop solution (Millipore, Billerica, Mass.). Five microliters of detection mix (Millipore, Billerica, Mass.) were then added to each well and was incubated for 6-18 h in the dark. HRTF ratio was measured on a microplate reader (BMG Labtech., Germany) at an excitation wavelength of 337 nm and emission wavelengths of 665 and 620 nm with an integration time of 400 μsec.
(§3) Data were analyzed using Graphpad Prism (Graphpad software; San Diego Calif.) for IC50 determination. Examples 1-59 were tested at 1 uM for Pi3kα & Pi3k β and at 0.3 uM for γ and δ. Examples 60-137 were tested at 1 uM for Pi3kα & Pi3k β and at 0.1 uM for γ and δ. Percent inhibition was calculated based on the values for the blank and enzyme controls. The results are as provided in Table 2 (wherein D=0 to 25%; C=>25 to 50%; B=>50 to 75%; A=>75 to 100%; +++++=≤50 nM; ++++=>50 to ≤100 nM; +++=>100 to ≤300 nM; ++=>300 to ≤500 nM; +=>500 nM)

PI3kγ = PI3kγ (Homo sapiens, UniProt P48736); assay: Fluorescent (HTRF) determination of PI3 kinase enzyme activity, PI3Kγ; settings: for inhibition at 0.1 µM / % inhibition (PI3kγ) 100 nM: 100 nM (Examples 60-137); for inhibition at 0.3 µM: 300 nM (Examples 1-59)
From the text: as §1, §2, §3

PI3kα = PI3kα (Homo sapiens, UniProt P42336); assay: Fluorescent (HTRF) determination of PI3 kinase enzyme activity, PI3Kα
From the text: as §1, §2, §3

PI3kβ = PI3kβ (Homo sapiens, UniProt P42338); assay: Fluorescent (HTRF) determination of PI3 kinase enzyme activity, PI3Kβ
From the text: as §1, §2, §3

PI3kβ, sequence (P42338 whole entry): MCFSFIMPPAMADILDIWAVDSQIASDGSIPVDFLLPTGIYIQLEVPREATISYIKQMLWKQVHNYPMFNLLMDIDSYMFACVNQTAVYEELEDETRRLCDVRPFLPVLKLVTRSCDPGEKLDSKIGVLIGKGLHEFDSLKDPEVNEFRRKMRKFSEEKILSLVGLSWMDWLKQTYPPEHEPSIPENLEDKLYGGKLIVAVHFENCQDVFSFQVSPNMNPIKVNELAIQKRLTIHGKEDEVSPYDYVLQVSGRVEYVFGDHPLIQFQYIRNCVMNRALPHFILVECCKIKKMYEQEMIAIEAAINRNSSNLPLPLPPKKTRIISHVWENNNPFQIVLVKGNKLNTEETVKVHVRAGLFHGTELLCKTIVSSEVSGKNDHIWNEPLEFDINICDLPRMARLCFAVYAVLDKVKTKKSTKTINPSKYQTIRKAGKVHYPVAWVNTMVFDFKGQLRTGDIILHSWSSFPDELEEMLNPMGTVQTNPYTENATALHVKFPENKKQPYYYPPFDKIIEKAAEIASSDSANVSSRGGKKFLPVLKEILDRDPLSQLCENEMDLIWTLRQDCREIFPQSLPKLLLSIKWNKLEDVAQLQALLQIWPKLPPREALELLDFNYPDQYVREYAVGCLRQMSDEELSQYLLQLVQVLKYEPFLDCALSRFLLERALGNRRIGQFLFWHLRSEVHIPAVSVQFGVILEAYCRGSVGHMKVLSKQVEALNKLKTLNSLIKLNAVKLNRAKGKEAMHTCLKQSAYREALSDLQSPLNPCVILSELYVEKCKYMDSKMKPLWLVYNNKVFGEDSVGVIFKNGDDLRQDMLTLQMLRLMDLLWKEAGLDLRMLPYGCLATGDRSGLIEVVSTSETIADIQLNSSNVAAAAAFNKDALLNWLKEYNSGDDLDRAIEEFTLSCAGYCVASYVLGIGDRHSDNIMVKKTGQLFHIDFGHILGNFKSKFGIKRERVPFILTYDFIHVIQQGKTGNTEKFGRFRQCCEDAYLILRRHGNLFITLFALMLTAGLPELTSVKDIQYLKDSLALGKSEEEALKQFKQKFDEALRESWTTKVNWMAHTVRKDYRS
PI3kβ, sequence (P27986 whole entry partner): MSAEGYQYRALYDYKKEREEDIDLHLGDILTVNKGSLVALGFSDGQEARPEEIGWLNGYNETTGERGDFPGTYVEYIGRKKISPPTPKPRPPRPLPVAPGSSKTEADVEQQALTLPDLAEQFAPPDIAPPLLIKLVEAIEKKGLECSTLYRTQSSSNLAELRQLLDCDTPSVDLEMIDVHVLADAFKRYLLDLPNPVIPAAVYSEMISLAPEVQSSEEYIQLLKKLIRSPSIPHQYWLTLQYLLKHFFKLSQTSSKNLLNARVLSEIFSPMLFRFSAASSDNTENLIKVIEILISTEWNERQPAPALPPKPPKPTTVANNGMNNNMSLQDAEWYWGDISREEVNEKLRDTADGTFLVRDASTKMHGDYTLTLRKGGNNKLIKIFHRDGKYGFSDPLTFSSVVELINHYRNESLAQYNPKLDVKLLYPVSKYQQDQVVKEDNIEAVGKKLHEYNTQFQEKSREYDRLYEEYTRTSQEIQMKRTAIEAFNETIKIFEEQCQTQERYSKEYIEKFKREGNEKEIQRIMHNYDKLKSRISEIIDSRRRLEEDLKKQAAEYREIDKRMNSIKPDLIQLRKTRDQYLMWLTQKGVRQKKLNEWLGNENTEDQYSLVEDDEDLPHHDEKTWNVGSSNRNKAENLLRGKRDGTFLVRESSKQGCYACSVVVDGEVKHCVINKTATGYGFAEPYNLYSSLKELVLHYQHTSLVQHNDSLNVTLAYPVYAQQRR
PI3kα, sequence (P42336 whole entry): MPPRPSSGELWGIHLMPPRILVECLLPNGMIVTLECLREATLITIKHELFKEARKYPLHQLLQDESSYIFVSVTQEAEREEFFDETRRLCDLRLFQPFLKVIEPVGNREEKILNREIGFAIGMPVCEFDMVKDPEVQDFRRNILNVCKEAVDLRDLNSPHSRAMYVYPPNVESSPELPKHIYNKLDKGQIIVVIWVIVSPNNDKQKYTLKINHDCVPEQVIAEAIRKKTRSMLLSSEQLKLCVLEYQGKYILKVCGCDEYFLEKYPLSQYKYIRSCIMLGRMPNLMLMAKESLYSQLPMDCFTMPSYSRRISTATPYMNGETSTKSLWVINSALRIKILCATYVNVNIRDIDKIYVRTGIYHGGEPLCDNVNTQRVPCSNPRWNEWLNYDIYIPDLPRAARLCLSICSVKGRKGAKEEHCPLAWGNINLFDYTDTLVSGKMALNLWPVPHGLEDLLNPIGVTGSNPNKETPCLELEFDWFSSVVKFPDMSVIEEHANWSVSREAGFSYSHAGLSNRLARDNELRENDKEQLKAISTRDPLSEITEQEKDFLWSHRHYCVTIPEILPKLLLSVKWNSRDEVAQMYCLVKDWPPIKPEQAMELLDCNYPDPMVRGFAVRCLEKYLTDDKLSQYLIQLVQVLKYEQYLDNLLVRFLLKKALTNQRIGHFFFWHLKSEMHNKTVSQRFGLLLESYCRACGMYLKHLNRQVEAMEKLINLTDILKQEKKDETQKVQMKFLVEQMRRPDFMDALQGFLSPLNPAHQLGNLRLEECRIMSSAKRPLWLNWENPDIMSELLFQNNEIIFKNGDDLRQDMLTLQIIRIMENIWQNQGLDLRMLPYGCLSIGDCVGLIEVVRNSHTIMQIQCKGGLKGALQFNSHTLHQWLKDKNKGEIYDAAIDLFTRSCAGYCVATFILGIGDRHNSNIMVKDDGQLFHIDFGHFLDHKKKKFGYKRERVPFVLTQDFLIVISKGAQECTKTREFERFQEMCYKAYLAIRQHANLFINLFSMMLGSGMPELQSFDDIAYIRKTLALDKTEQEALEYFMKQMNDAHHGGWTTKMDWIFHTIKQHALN
PI3kα, sequence (P27986 whole entry partner): as the sequence (P27986 whole entry partner) above
PI3kδ, sequence (O00329 whole entry): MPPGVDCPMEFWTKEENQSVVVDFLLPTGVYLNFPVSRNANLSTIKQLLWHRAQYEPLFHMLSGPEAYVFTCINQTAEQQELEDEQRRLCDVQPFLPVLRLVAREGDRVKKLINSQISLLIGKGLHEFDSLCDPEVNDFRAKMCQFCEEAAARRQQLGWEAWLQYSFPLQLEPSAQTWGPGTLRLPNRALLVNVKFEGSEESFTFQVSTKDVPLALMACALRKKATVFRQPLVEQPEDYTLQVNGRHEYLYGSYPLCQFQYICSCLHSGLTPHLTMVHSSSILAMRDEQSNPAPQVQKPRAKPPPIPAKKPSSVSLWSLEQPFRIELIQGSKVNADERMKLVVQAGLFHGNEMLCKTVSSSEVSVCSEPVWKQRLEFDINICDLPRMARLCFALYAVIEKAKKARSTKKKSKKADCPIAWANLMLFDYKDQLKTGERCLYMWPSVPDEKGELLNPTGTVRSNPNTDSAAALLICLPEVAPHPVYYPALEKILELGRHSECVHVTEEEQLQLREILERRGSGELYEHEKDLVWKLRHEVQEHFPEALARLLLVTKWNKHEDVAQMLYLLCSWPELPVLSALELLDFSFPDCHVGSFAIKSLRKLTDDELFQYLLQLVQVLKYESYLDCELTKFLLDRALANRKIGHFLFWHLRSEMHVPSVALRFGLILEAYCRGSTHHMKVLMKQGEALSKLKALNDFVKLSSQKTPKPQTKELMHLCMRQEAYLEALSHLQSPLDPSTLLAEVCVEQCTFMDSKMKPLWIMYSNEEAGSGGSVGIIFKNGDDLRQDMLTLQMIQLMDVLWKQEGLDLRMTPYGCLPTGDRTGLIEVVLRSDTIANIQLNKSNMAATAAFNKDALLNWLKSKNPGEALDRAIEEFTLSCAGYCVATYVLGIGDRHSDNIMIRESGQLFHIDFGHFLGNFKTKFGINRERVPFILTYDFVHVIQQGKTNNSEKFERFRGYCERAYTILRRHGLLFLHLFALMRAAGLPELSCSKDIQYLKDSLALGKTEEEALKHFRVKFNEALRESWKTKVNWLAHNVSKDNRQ
PI3kδ, sequence (P27986 whole entry partner): as the sequence (P27986 whole entry partner) above
PI3kγ, sequence (P48736 whole entry): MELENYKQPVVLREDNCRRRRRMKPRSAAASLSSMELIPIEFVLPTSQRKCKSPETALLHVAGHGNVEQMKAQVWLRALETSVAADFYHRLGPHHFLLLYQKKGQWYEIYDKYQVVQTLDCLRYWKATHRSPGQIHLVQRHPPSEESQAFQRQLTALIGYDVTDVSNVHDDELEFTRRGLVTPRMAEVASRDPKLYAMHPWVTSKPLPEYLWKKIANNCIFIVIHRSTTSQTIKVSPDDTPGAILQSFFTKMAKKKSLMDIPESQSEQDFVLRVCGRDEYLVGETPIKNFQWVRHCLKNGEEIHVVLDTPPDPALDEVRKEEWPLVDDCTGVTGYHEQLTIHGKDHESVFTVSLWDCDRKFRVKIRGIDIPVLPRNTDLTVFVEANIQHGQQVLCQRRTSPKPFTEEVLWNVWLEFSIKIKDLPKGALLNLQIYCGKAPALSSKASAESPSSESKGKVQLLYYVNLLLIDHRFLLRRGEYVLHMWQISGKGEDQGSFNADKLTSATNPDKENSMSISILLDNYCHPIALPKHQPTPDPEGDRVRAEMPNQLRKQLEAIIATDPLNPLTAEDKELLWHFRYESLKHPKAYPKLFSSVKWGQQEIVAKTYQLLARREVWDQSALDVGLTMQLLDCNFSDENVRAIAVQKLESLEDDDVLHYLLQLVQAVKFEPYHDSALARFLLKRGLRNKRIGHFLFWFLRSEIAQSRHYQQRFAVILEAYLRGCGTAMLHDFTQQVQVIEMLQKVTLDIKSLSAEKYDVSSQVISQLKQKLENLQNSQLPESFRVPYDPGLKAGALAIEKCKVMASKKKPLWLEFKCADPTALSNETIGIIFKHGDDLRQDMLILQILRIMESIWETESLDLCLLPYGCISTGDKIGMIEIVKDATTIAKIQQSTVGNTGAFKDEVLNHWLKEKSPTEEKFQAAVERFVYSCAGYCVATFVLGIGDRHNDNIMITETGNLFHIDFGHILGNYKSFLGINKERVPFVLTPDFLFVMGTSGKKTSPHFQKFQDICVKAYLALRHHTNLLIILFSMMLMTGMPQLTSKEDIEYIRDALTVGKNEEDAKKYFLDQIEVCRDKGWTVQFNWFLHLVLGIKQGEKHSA

Compound: COc1cccc2oc(Cn3cnc4c(N)ncnc43)c(-c3cccc(F)c3)c(=O)c12 [Example 1]
- inhibition at 1 µM (PI3kβ): 25 to 50%
- inhibition at 1 µM (PI3kα; 1 uM): 25 to 50%
- inhibition at 0.3 µM (PI3kδ): 50 to 75%

Compound: COc1cccc2oc(Cn3nc(-c4ccc(OC(C)C)c(F)c4)c4c(N)ncnc43)c(-c3cccc(F)c3)c(=O)c12 [Example 2, 2-((4-Amino-3-(3-fluoro-4-isopropoxyphenyl)-1H-pyrazolo[3,4-d]pyrimidin-1-yl)methyl)-3-(3-fluorophenyl)-5-methoxy-4H-chromen-4-one]
- inhibition at 1 µM (PI3kβ): 0 to 25%
- inhibition at 1 µM (PI3kα; 1 uM): 0 to 25%
- inhibition at 0.3 µM (PI3kδ): 50 to 75%

Compound: Nc1ncnc2c1c(-c1cc(O)cc(F)c1)nn2Cc1oc2cccc(F)c2c(=O)c1-c1cccc(F)c1 [Example 5, 2-((4-amino-3-(3-fluoro-5-hydroxyphenyl)-1H-pyrazolo[3,4-d]pyrimidin-1-yl)methyl)-5-fluoro-3-(3-fluorophenyl)-4H-chromen-4-one]
- IC50 (PI3kβ): 300 to 500 nM
- inhibition at 1 µM (PI3kβ): 0 to 25%
- inhibition at 1 µM (PI3kα; 1 uM): 25 to 50%
- IC50 (PI3kα; numeric values): > 10000 nM
- inhibition at 0.3 µM (PI3kδ): 50 to 75%

Compound: CC(Nc1ncnc2[nH]cnc12)c1oc2cccc(F)c2c(=O)c1-c1cccc(F)c1 (stereo not drawn) [Example 15, 2-(1-(9H-purin-6-ylamino)ethyl)-5-fluoro-3-(3-fluorophenyl)-4H-chromen-4-one]
- inhibition at 0.3 µM (PI3kδ): 0 to 25%
- inhibition at 0.3 µM (PI3kγ): 0 to 25%

Compound: CC(C)c1nn(C(C)c2oc3cccc(F)c3c(=O)c2-c2cccc(F)c2)c2ncnc(N)c12 (stereo not drawn) [Example 35, 2-(1-(4-amino-3-isopropyl-1H-pyrazolo[3,4-d]pyrimidin-1-yl)ethyl)-5-fluoro-3-(3-fluorophenyl)-4H-chromen-4-one]
- inhibition at 0.3 µM (PI3kδ): 0 to 25%
- inhibition at 0.3 µM (PI3kγ): 25 to 50%

Compound: CNc1ncnc2c1c(-c1ccc(N3CCOCC3)c(F)c1)nn2C(C)c1oc2cccc(F)c2c(=O)c1-c1cccc(F)c1 (stereo not drawn) [Example 99, 5-fluoro-2-(1-(3-(3-fluoro-4-morpholinophenyl)-4-(methylamino)-1H-pyrazolo[3,4-d]pyrimidin-1-yl)ethyl)-3-(3-fluorophenyl)-4H-chromen-4-one]
- inhibition at 0.1 µM (PI3kδ): 25 to 50%
- inhibition at 0.1 µM (PI3kγ): 25 to 50%

Compound: CC(c1oc2cccc(F)c2c(=O)c1-c1cccc(F)c1)n1cnc2c(N)nc(F)nc21 (stereo not drawn) [Example 106, 2-(1-(6-amino-2-fluoro-9H-purin-9-yl)ethyl)-5-fluoro-3-(3-fluorophenyl)-4H-chromen-4-one]
- inhibition at 0.1 µM (PI3kδ): 0 to 25%
- inhibition at 0.1 µM (PI3kγ): 25 to 50%

Compound: CC(c1oc2cccc(F)c2c(=O)c1-c1ccc(F)cc1)n1cnc2c(N3CCN(C)CC3)ncnc21 (stereo not drawn) [Example 109, 5-fluoro-3-(4-fluorophenyl)-2-(1-(6-(4-methylpiperazin-1-yl)-9H-purin-9-yl)ethyl)-4H-chromen-4-one]
- inhibition at 0.1 µM (PI3kδ): 25 to 50%
- inhibition at 0.1 µM (PI3kγ): 0 to 25%

Compound: CNc1ncnc2c1ncn2C(C)c1oc2cccc(F)c2c(=O)c1-c1cccc(F)c1 (stereo not drawn) [Example 111, 5-fluoro-3-(3-fluorophenyl)-2-(1-(6-(methylamino)-9H-purin-9-yl)ethyl)-4H-chromen-4-one]
- inhibition at 1 µM (PI3kβ): 0 to 25%
- inhibition at 0.1 µM (PI3kδ): 25 to 50%
- inhibition at 0.1 µM (PI3kγ): 25 to 50%

Compound: CC(c1oc2cccc(F)c2c(=O)c1-c1cccc(F)c1)n1cnc2c(N3CCOCC3)ncnc21 (stereo not drawn) [Example 119, 5-fluoro-3-(3-fluorophenyl)-2-(1-(6-morpholino-9H-purin-9-yl)ethyl)-4H-chromen-4-one]
- inhibition at 0.1 µM (PI3kδ): 0 to 25%
- inhibition at 0.1 µM (PI3kγ): 25 to 50%

Further lines, results first:

- inhibition at 0.1 µM (PI3kδ): 0 to 25%
- inhibition at 0.1 µM (PI3kγ): 0 to 25%
Compound: CC(c1oc2cccc(F)c2c(=O)c1-c1ccc(F)cc1)n1nc(-c2ccc(OC(F)F)c(F)c2)c2c(N)ncnc21 (racemic) [Example 96, (S)/(R)-2-(1-(4-amino-3-(4-(difluoromethoxy)-3-fluorophenyl)-1H-pyrazolo[3,4-d]pyrimidin-1-yl)ethyl)-5-fluoro-3-(4-fluorophenyl)-4H-chromen-4-one]

- inhibition at 0.1 µM (PI3kδ): 25 to 50%
- inhibition at 0.1 µM (PI3kγ): 0 to 25%
Compound: CC(C)Oc1ccc(-c2nn(C(C)c3oc4cccc(F)c4c(=O)c3-c3ccc(F)cc3)c3ncnc(N)c23)cc1F (single isomer, unassigned) [Example 95]

- inhibition at 0.1 µM (PI3kδ): 0 to 25%
- inhibition at 0.1 µM (PI3kγ): 25 to 50%
Compound: CC(c1oc2cccc(F)c2c(=O)c1-c1ccccc1)n1nc(-c2ccc(OC(F)F)c(F)c2)c2c(N)ncnc21 (single isomer, unassigned) [Example 103]

- % inhibition (PI3kδ) 100 nM (PI3kδ): D (D=0 to 25%)
- inhibition at 0.1 µM (PI3kγ): 25 to 50%
Compound: CNc1ncnc2c1c(-c1ccc(OC(C)C)c(F)c1)nn2C(C)c1oc2cccc(F)c2c(=O)c1-c1cccc(F)c1 (single isomer, unassigned; (+)) [Example 104, (+)-5-fluoro-2-(1-(3-(3-fluoro-4-isopropoxyphenyl)-4-(methylamino)-1H-pyrazolo[3,4-d]pyrimidin-1-yl)ethyl)-3-(3-fluorophenyl)-4H-chromen-4-one]

- % inhibition (PI3kα) 1 uM (PI3kα; 1 uM): D (D=0 to 25%)
- % inhibition (PI3kδ) 100 nM (PI3kδ): B (B=>50 to 75%)
- % inhibition (PI3kγ) 100 nM (PI3kγ; 0.1 µM): B (B=>50 to 75%)
Compound: Cc1cc(-c2nn(C(C)c3oc4cccc(F)c4c(=O)c3-c3cccc(F)c3)c3ncnc(N)c23)ccc1OC(C)C (single isomer, unassigned; (+)) [Example 114, (+) 2-(1-(4-amino-3-(4-isopropoxy-3-methylphenyl)-1H-pyrazolo[3,4-d]pyrimidin-1-yl)ethyl)-5-fluoro-3-(3-fluorophenyl)-4H-chromen-4-one]

- % inhibition (PI3kδ) 100 nM (PI3kδ): D (D=0 to 25%)
- % inhibition (PI3kγ) 100 nM (PI3kγ): C (C=>25 to 50%)
Compound: CNc1ncnc2c1c(-c1ccc(OC(C)C)c(F)c1)nn2C(C)c1oc2cccc(F)c2c(=O)c1-c1cccc(F)c1 (single isomer, unassigned; (-)) [Example 105, (−)-5-fluoro-2-(1-(3-(3-fluoro-4-isopropoxyphenyl)-4-(methylamino)-1H-pyrazolo[3,4-d]pyrimidin-1-yl)ethyl)-3-(3-fluorophenyl)-4H-chromen-4-one]

- inhibition at 0.3 µM (PI3kδ): 25 to 50%
- inhibition at 0.3 µM (PI3kγ): 0 to 25%
Compound: CC(c1oc2cccc(F)c2c(=O)c1-c1cccc(F)c1)n1nc(-c2ccc(OC3CCNCC3)c(F)c2)c2c(N)ncnc21 (stereo not drawn) [Example 21, 2-(1-(4-amino-3-(3-fluoro-4-(piperidin-4-yloxy)phenyl)-1H-pyrazolo[3,4-d]pyrimidin-1-yl)ethyl)-5-fluoro-3-(3-fluorophenyl)-4H-chromen-4-one]

- inhibition at 1 µM (PI3kβ): 50 to 75%
- inhibition at 1 µM (PI3kα; 1 uM): 0 to 25%
- inhibition at 0.3 µM (PI3kγ): 25 to 50%
Compound: CC(c1oc2cccc(F)c2c(=O)c1-c1cccc(F)c1)n1nc(-c2ccc(N(C)C)c(F)c2)c2c(N)ncnc21 (stereo not drawn) [Example 24, 2-(1-(4-amino-3-(4-(dimethylamino)-3-fluorophenyl)-1H-pyrazolo[3,4-d]pyrimidin-1-yl)ethyl)-5-fluoro-3-(3-fluorophenyl)-4H-chromen-4-one]

- inhibition at 0.1 µM (PI3kδ): 0 to 25%
- inhibition at 0.1 µM (PI3kγ): 0 to 25%
Compound: CC(c1oc2cccc(F)c2c(=O)c1-c1ccccc1)n1nc(-c2ccc(N3CCOCC3)c(F)c2)c2c(N)ncnc21 (stereo not drawn) [Example 92, 2-(1-(4-amino-3-(3-fluoro-4-morpholinophenyl)-1H-pyrazolo[3,4-d]pyrimidin-1-yl)ethyl)-5-fluoro-3-phenyl-4H-chromen-4-one]

- inhibition at 0.1 µM (PI3kδ): 25 to 50%
- inhibition at 0.1 µM (PI3kγ): 0 to 25%
Compound: CC(c1oc2cccc(F)c2c(=O)c1-c1ccc(F)cc1)n1nc(-c2ccc(N3CCOCC3)c(F)c2)c2c(N)ncnc21 (stereo not drawn) [Example 93, 2-(1-(4-amino-3-(3-fluoro-4-morpholinophenyl)-1H-pyrazolo[3,4-d]pyrimidin-1-yl)ethyl)-5-fluoro-3-(4-fluorophenyl)-4H-chromen-4-one]

- inhibition at 1 µM (PI3kα; 1 uM): 50 to 75%
- inhibition at 0.1 µM (PI3kδ): 25 to 50%
- inhibition at 0.1 µM (PI3kγ): 25 to 50%
Compound: CC(C)Oc1ccc(-c2nn(C(C)c3oc4cccc(F)c4c(=O)c3-c3cccc(F)c3)c3ncnc(N)c23)cc1Cl (stereo not drawn) [Example 117, 2-(1-(4-amino-3-(3-chloro-4-isopropoxyphenyl)-1H-pyrazolo[3,4-d]pyrimidin-1-yl)ethyl)-5-fluoro-3-(3-fluorophenyl)-4H-chromen-4-one]

- inhibition at 1 µM (PI3kβ): 50 to 75%
- inhibition at 0.1 µM (PI3kδ): 25 to 50%
- inhibition at 0.1 µM (PI3kγ): 50 to 75%
Compound: CCC(c1oc2cccc(F)c2c(=O)c1-c1cccc(F)c1)n1nc(-c2ccc(OC(C)C)c(F)c2)c2c(N)ncnc21 (stereo not drawn) [Example 133, 2-(1-(4-amino-3-(3-fluoro-4-isopropoxyphenyl)-1H-pyrazolo[3,4-d]pyrimidin-1-yl)propyl)-5-fluoro-3-(3-fluorophenyl)-4H-chromen-4-one]

From patent US11020399B2, “Intermediates useful in the synthesis of compounds as modulators of protein kinases” (Rhizen Pharmaceuticals SA, priority 2011, dated 2021)
